Structures can show the parent of a compound that is named as a salt.
molecular target: T1, Adrenergic β2 (Homo sapiens, UniProt P07550); assay: Adrenergic β2 mediated cAMP production in H292 cells (AlphaScreen cAMP detection); format: cell-based; settings: Intrinsic Activity, fraction relative to the maximum activity determined for formoterol
T1 construct: Adherent H292 cells were removed from tissue culture flasks; endogenous in cells; host or cells: H292 cells
Procedure: Adrenergic β2 Mediated cAMP Production
H292 cells were grown in 225 cm2 flasks incubator at 37° C., 5% CO2 in RPMI medium containing, 10% (v/v) FBS (foetal bovine serum) and 2 mM L-glutamine.
Adherent H292 cells were removed from tissue culture flasks by treatment with Accutase™ cell detachment solution for 15 minutes. Flasks were incubated for 15 minutes in a humidified incubator at 37° C., 5% CO2. Detached cells were re-suspended in RPMI media (containing 10% (v/v) FBS and 2 mM L-glutamine) at 0.05×10^6 cells per mL. 5000 cells in 100 μL were added to each well of a tissue-culture-treated 96-well plate and the cells incubated overnight in a humidified incubator at 37° C., 5% CO2. The culture media was removed and cells were washed twice with 100 μL assay buffer and replaced with 50 μL assay buffer (HBSS solution containing 10 mM HEPES pH 7.4 and 5 mM glucose). Cells were rested at room temperature for 20 minutes after which time 25 μL of rolipram (1.2 mM made up in assay buffer containing 2.4% (v/v) dimethylsulphoxide) was added. Cells were incubated with rolipram for 10 minutes after which time test compounds were added and the cells were incubated for 60 minutes at room temperature. The final rolipram concentration in the assay was 300 μM and final vehicle concentration was 1.6% (v/v) dimethylsulphoxide. The reaction was stopped by removing supernatants, washing once with 100 μL assay buffer and replacing with 50 μL lysis buffer. The cell monolayer was frozen at −80° C. for 30 minutes (or overnight).
The concentration of cAMP (cyclic adenosine monophosphate) in the cell lysate was determined using AlphaScreen™ methodology. The frozen cell plate was thawed for 20 minutes on a plate shaker then 10 μL of the cell lysate was transferred to a 96-well white plate. 40 μL of mixed AlphaScreen™ detection beads pre-incubated with biotinylated cAMP, was added to each well and the plate incubated at room temperature for 10 hours in the dark. The AlphaScreen™ signal was measured using an EnVision spectrophotometer (Perkin-Elmer Inc.) with the recommended manufacturer's settings. cAMP concentrations were determined by reference to a calibration curve determined in the same experiment using standard cAMP concentrations. Concentration response curves for agonists were constructed and data was fitted to a four parameter logistic equation to determine both the pEC50 and Intrinsic Activity. Intrinsic Activity was expressed as a fraction relative to the maximum activity determined for formoterol in each experiment.

T1 sequence (P07550 whole entry): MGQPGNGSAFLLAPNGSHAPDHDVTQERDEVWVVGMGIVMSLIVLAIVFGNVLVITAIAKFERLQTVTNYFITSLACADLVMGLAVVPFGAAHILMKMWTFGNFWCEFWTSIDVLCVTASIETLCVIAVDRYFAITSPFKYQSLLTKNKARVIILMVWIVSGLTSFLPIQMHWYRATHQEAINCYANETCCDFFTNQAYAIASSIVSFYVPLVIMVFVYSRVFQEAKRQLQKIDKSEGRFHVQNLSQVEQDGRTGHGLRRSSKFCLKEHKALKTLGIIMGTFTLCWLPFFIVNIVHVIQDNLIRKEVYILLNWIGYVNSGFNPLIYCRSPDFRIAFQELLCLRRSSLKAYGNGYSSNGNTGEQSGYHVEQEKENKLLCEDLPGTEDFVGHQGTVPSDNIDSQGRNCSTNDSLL

Row | SMILES | β2 Int Act
1 | O=C(NCc1ccccc1)c1ccc(CCNCCC(=O)N(CCNCCc2ccc(O)c3[nH]c(=O)sc23)C2CCCCCC2)cc1 [Example 100, N-Benzyl-4-[2-({3-[cycloheptyl(2-{[2-(4-hydroxy-2-oxo-2,3-dihydro-1,3-benzothiazol-7-yl)ethyl]amino}ethyl)amino]-3-oxopropyl}amino)ethyl]benzamide bis-trifluoroacetic acid salt] | 0.81
2 | O=C(CCNCCc1cccc(OC(F)F)c1)N(CCNCCc1ccc(O)c2[nH]c(=O)sc12)C1CCCCCC1 [Example 54, N^1-Cycloheptyl-N^3-{2-[3-(difluoromethoxy)phenyl]ethyl}-N^1-(2-{[2-(4-hydroxy-2-oxo-2,3-dihydro-1,3-benzothiazol-7-yl)ethyl]amino}ethyl)-β-alaninamide bis-trifluoroacetic acid salt] | 0.69
3 | O=C(CCNCCc1cccs1)N(CCNCCc1ccc(O)c2[nH]c(=O)sc12)C1CCCCC1 [Example 35, N-Cyclohexyl-N-(2-{[2-(4-hydroxy-2-oxo-2,3-dihydro-1,3-benzothiazol-7-yl)ethyl]amino}ethyl)-N^3-[2-(2-thienyl)ethyl]-β-alaninamide bis-trifluoroacetic acid salt] | 0.91
4 | CC(C)(CO)CN(CCNCCc1ccc(O)c2[nH]c(=O)sc12)C(=O)CCNCCc1cccc(Cl)c1 [Example 66, N^3-[2-(3-Chlorophenyl)ethyl]-N^1-(3-hydroxy-2,2-dimethylpropyl)-N^1-(2-{[2-(4-hydroxy-2-oxo-2,3-dihydro-1,3-benzothiazol-7-yl)ethyl]amino}ethyl)-β-alaninamide bis-trifluoroacetic acid salt] | 0.59
5 | O=C(CCNCCc1ccc(Cl)s1)N(CCNCCc1ccc(O)c2[nH]c(=O)sc12)C1CCCCC1 [Example 72, N^3-[2-(5-Chloro-2-thienyl)ethyl]-N^1-cyclohexyl-N^1-(2-{[2-(4-hydroxy-2-oxo-2,3-dihydro-1,3-benzothiazol-7-yl)ethyl]amino}ethyl)-β-alaninamide bis-trifluoroacetic acid salt] | 0.89
6 | COc1cccc(CCNCCC(=O)N(CCNCCc2ccc(O)c3[nH]c(=O)sc23)C2CCCCC2)c1 [Example 70, N^1-Cyclohexyl-N^1-(2-{[2-(4-hydroxy-2-oxo-2,3-dihydro-1,3-benzothiazol-7-yl)ethyl]amino}ethyl)-N^3-[2-(3-methoxyphenyl)ethyl]-β-alaninamide bis-trifluoroacetic acid salt] | 0.84
7 | O=C(CCNCCc1cccc(O)c1)N(CCNCCc1ccc(O)c2[nH]c(=O)sc12)C1CCCCCC1 [Example 37, N-Cycloheptyl-N-(2-{[2-(4-hydroxy-2-oxo-2,3-dihydro-1,3-benzothiazol-7-yl)ethyl]amino}ethyl)-N^3-[2-(3-hydroxyphenyl)ethyl]-β-alaninamide bis-trifluoroacetic acid salt] | 0.91
8 | O=C(CCNCCc1ccccc1)N(CCNCCc1ccc(O)c2[nH]c(=O)sc12)C1Cc2ccccc2C1 [Example 41, N^1-(2,3-Dihydro-1H-inden-2-yl)-N^1-(2-{[2-(4-hydroxy-2-oxo-2,3-dihydro-1,3-benzothiazol-7-yl)ethyl]amino}ethyl)-N^3-(2-phenylethyl)-β-alaninamide bis-trifluoroacetic acid salt] | 0.99
9 | O=C(CCNCCc1ccc(F)cc1)N(CCNCCc1ccc(O)c2[nH]c(=O)sc12)CC12CC3CC(CC(C3)C1)C2 [Example 61, N^1-(1-Adamantylmethyl)-N^3-[2-(4-fluorophenyl)ethyl]-N^1-(2-{[2-(4-hydroxy-2-oxo-2,3-dihydro-1,3-benzothiazol-7-yl)ethyl]amino}ethyl)-β-alaninamide bis-trifluoroacetic acid salt] | 0.79
10 | O=C(CCNCCc1cccc(Cl)c1)N(CCNCCc1ccc(O)c2[nH]c(=O)sc12)C1CCCCC1 [Example 12, N^3-[2-(3-Chlorophenyl)ethyl]-N-cyclohexyl-N-(2-{[2-(4-hydroxy-2-oxo-2,3-dihydro-1,3-benzothiazol-7-yl)ethyl]amino}ethyl)-β-alaninamide bis-trifluoroacetic acid salt] | 0.87
11 | CC(C)(Cc1ccccc1)NCCC(=O)N(CCNCCc1ccc(O)c2[nH]c(=O)sc12)C1CCCCC1 [Example 19, N-Cyclohexyl-N^3-(1,1-dimethyl-2-phenylethyl)-N-(2-{[2-(4-hydroxy-2-oxo-2,3-dihydro-1,3-benzothiazol-7-yl)ethyl]amino}ethyl)-β-alaninamide bis-trifluoroacetic acid salt] | 0.70
12 | O=C(CCNCCc1cc(F)ccc1F)N(CCNCCc1ccc(O)c2[nH]c(=O)sc12)C1CCCCCC1 [Example 83, N^1-Cycloheptyl-N^3-[2-(2,5-difluorophenyl)ethyl]-N^1-(2-{[2-(4-hydroxy-2-oxo-2,3-dihydro-1,3-benzothiazol-7-yl)ethyl]amino}ethyl)-β-alaninamide bis-trifluoroacetic acid salt] | 0.71
13 | CC(C)(CO)CN(CCNCCc1ccc(O)c2[nH]c(=O)sc12)C(=O)CCNCCc1ccc(Cl)cc1 [Example 40, N^3-[2-(4-Chlorophenyl)ethyl]-N-(3-hydroxy-2,2-dimethylpropyl)-N-(2-{[2-(4-hydroxy-2-oxo-2,3-dihydro-1,3-benzothiazol-7-yl)ethyl]amino}ethyl)-β-alaninamide diacetic acid salt] | 0.64
14 | COc1ccc(CCNCCC(=O)N(CCNCCc2ccc(O)c3[nH]c(=O)sc23)C2CCCCCC2)cc1OC [Example 86, N^1-Cycloheptyl-N^3-[2-(3,4-dimethoxyphenyl)ethyl]-N^1-(2-{[2-(4-hydroxy-2-oxo-2,3-dihydro-1,3-benzothiazol-7-yl)ethyl]amino}ethyl)-β-alaninamide bis-trifluoroacetic acid salt] | 0.43
15 | O=C(CCNCCc1cccs1)N(CCNCCc1ccc(O)c2[nH]c(=O)sc12)C1CCCCCC1 [Example 52, N^1-Cycloheptyl-N^1-(2-{[2-(4-hydroxy-2-oxo-2,3-dihydro-1,3-benzothiazol-7-yl)ethyl]amino}ethyl)-N^3-[2-(2-thienyl)ethyl]-β-alaninamide bis-trifluoroacetic acid salt] | 0.92
16 | C[C@H](CNCCC(=O)N(CCNCCc1ccc(O)c2[nH]c(=O)sc12)CC(C)(C)C)c1ccccc1 [Example 11, N-(2,2-Dimethylpropyl)-N-(2-{[2-(4-hydroxy-2-oxo-2,3-dihydro-1,3-benzothiazol-7-yl)ethyl]amino}ethyl)-N^3-[(2S)-2-phenylpropyl]-β-alaninamide bis-trifluoroacetic acid salt] | 0.84
17 | C[C@H](CNCCC(=O)N(CCNCCc1ccc(O)c2[nH]c(=O)sc12)C1CCCCC1)c1ccccc1 [Example 18, N-Cyclohexyl-N-(2-{[2-(4-hydroxy-2-oxo-2,3-dihydro-1,3-benzothiazol-7-yl)ethyl]amino}ethyl)-N^3-[(2S)-2-phenylpropyl]-β-alaninamide bis-trifluoroacetic acid salt] | 0.89

same assay, conditions: Intrinsic Activity, fraction relative to the maximum activity determined for formoterol, dihydrobromide salt

Row | SMILES | β2 Int Act
18 | O=C(CCNCCc1ccccc1)N(CCNCCc1ccc(O)c2[nH]c(=O)sc12)C1CCCCCC1 [Example 98, N-Cycloheptyl-N-(2-{[2-(4-hydroxy-2-oxo-2,3-dihydro-1,3-benzothiazol-7-yl)ethyl]amino}ethyl)-N^3-(2-phenylethyl)-β-alaninamide dihydrobromide salt] | 0.8

From patent publication US7700782B2, “Compounds 569” (AstraZeneca AB, priority 2007, dated 2010)
